Assay results published in ChEMBL document CHEMBL1158269, “Ehretianone, a novel quinonoid xanthene from Ehretia buxifolia with antisnake venom activity” (J Nat Prod, 1996).

Tests used:
[1] = Curative activity against Echis carinatus venom assessed as mortality at 3.75 mg/kg, sc administered 45 mins after injection of venom to Swiss albino mouse measured within 24 hrs; type: functional; conditions: route subcutaneous
[2] = system: Mus musculus; test: Toxicity in Swiss albino mouse up to 100 mg/kg, sc; type: organism-based; set-up: dose 100 mg/kg, route subcutaneous; conditions: in vivo
[3] = Curative activity against Echis carinatus venom assessed as mortality at 3.75 mg/kg, sc administered 5 mins after injection of venom to Swiss albino mouse measured within 24 hrs; type: functional; conditions: route subcutaneous
[4] = Curative activity against Echis carinatus venom assessed as mortality at 3.75 mg/kg, sc administered 30 mins after injection of venom to Swiss albino mouse measured within 24 hrs; type: functional; conditions: route subcutaneous
[5] = Prophylactic activity against Echis carinatus venom assessed as mortality at 3.75 mg/kg, sc administered 30 mins before injection of venom to Swiss albino mouse measured within 24 hrs; type: functional; conditions: route subcutaneous
[6] = Antisnake venom activity against Echis carinatus venom assessed as mortality at 2.50 mg/kg preincubated for 30 mins with venom LD50 before subcutaneous administration to Swiss albino mouse measured within 24 hrs; type: functional; conditions: dose 2.5 mg/kg
[7] = Antisnake venom activity against Echis carinatus venom assessed as mortality at 3.75 mg/kg preincubated for 30 mins with venom LD50 before subcutaneous administration to Swiss albino mouse measured within 24 hrs; type: functional
[8] = Antisnake venom activity against Echis carinatus venom assessed as mortality at 1.25 mg/kg preincubated for 30 mins with venom LD50 before subcutaneous administration to Swiss albino mouse measured within 24 hrs; type: functional

SMILES: CC(C)=CC[C@]12C(=O)C=CC(=O)[C@]13CC(C)=C[C@H]2c1cc(O)ccc1O3 [EHRETIANONE]
- Activity [1]: 45%
- Activity [2]: Non-toxic
- Activity [3]: 21.7%
- Activity [4]: 38.3%
- Activity [5]: 16.7%
- Activity [6]: 26.7%
- Activity [7]: 13.3%
- Activity [8]: 43.3%
